Test [1] has as its system GT 4d-Neo replicons (4d-2Re and 4d-3Re), NS3 activity. As to the kind of experiment: Inhibition of NS3 activity of GT 4d-Neo replicons from pooled colonies. The note with it: 4d-3Re and 4d-2Re replicon cells; FIG. 3A-B. It is filed as cell-based, Hepatitis C virus. From the text:
Alternately, efficacy of the HCV inhibitor can be measured by the expression or activity of the proteins encoded by the replicons. One example of such proteins is the NS3 protease, and detection of the protein expression or activity can be carried out with methods known in the art, e.g., Cheng et al., Antimicrob Agents Chemother 55:2197-205 (2011).
(§1) Luciferase or NS3 protease activity level is then converted into percentages relative to the levels in the controls which can be untreated or treated with an agent having known activity in inhibiting the HCV.
Two candidate HCV inhibitors, Compound A (FIG. 3A) and B (FIG. 3B) were used to test the inhibition of NS3 activities of the replicons isolated from pooled colonies (4d-2Re and 4d-3Re, see FIG. 2). […] Also observed was that NS3 activity was higher in 4d-3Re than 4d-2Re.
4000 cells/well were plated in 96-well white plates. NS3 activity was read 72 hours after plating. Values shown in FIG. 4 are mean of DMSO treated well from 3 plates.

The subject of test [2] is GT4d (34R + 232I-pool) replicon. As to the kind of experiment: HCV replicon susceptibility to antiviral agents, GT4d (34R + 232I-pool). In kind it is cell-based. To be noted: Hepatitis C virus, GT4d replicon with Q34R + S232I, n = 2. The protocol: (§2) All of these HCV inhibitors, as well as any other candidate agents, can be tested with the disclosed methods for their efficacy in inhibiting HCV genotype 4d. The cells are then incubated at a suitable temperature for a period time to allow the replicons to replicate in the cells. The replicons can include a reporter gene such as luciferase and in such a case, at the end of the incubation period, the cells are assayed for luciferase activity as markers for replicon levels. Luciferase expression can be quantified using a commercial luciferase assay.
as §1
(§3) Stable GT4d subgenomic replicons were prepared to include these double mutations (FIG. 12). Ten micrograms of in vitro transcribed 4d Rluc-Neo RNA were transfected into 1C cells. G418 selection started 2 days after transfection and plates were fixed and stained after 2 weeks of G418 selection. […] The luciferase activity of these stable replicon cells of these replicons were further compared to GT4a replicons and GT1b.
(§4) Another comparison was made, with respect to each replicon's susceptibility against HCV antiviral agents.
On the technique in general: Replicon systems follow genome replication, usually without infectious particles.

The next test relates to GT1b replicon. As to the kind of experiment: HCV replicon susceptibility to antiviral agents, GT1b. The note with it: Hepatitis C virus, n = 2. In kind it is cell-based. The protocol: as §2, §1, §4
In the next test the test system is GT4a replicon. As to the kind of experiment: HCV replicon susceptibility to antiviral agents, GT4a. It is filed as cell-based. The note with it: Hepatitis C virus, n = 2. The method, then:
as §2, §1, §4

Test [3] relates to GT4d (34R + 232G-pool) replicon. As to the kind of experiment: HCV replicon susceptibility to antiviral agents, GT4d (34R + 232G-pool). It is filed as cell-based. The note with it: Hepatitis C virus, GT4d replicon with Q34R + S232G, n = 2. The method, then:
as §2, §1, §3, §4

A word on the EC50: it is the concentration that produces a half-maximal response.

For the compound `CC(C)OC(=O)[C@H](C)NP(=O)(OC[C@H]1O[C@@H](n2ccc(=O)[nH]c2=O)[C@](C)(F)[C@@H]1O)Oc1ccccc1` (stereo partly drawn) [Compound A, isopropyl (2S)-2-[[[(2R,3R,4R,5R)-5-(2,4-dioxopyrimidin-1-yl)-4-fluoro-3-hydroxy-4-methyl-tetrahydrofuran-2-yl]methoxy-phenoxy-phosphoryl]amino]propanoate], in test [1], the “inhibition of NS3 activity” value was “dose dependent inhibition”. For the same compound, the EC50 in test [2] came out at 0.037 µM; with GT1b replicon, 0.158 µM; with GT4a replicon, 0.07 µM; in test [3], 0.033 µM.

The record behind these values is patent publication US20150072418A1, “HCV GENOTYPE 4D REPLICONS” (priority 2013, published 2015).
